From patent US9303009B2, “Migrastatins and uses thereof” (Sloan-Kettering Institute for Cancer Research, priority 2011, dated 2016)

Assays:
[1] = tested on: A549, H1975, and H299 cancer cells; test: transwell migration, panel of NSCLC lines; type: cell-based, human; conditions: for IC50: Homo sapiens, range over A549, H1975 and H299, read-out: IC50 values across cell lines; for toxicity and effects on cell proliferation: in the millimolar range
Description: (§1) Migration assay: Cancer cell chemotaxis was performed towards a serum gradient in a modified Boyden chamber consisting of a cell culture insert (6.4 mm diameter, 8-μm pore polyethylene tetraphtalate membrane, [Becton Dickenson]) seated in each well of a 24-well companion plate (Becton Dickinson). Briefly, cancer cells were grown as subconfluent monolayer cultures then starved for 36 hours in serum-free M5 medium. After detachment and dissociation with 5 mM EDTA, single-cell suspensions were prepared by filtration through a 35 μm mesh cell strainer (Becton Dickinson). Cells were counted and a total of 10^5 cells suspended in serum-free medium were seeded into the upper chamber of an insert, then positioned in a 24-well plate, containing medium with or without 10% serum. When used, drugs or DMSO (vehicle) were added to the medium at 0.2% in both chambers. Migration assays were carried out for 12 hours in a humidified incubator at 37° C. with 5% CO2. Cells were then fixed with 3.7% formaldehyde, permeabilized with ice cold methanol and stained with a 0.2% Crystal violet solution. Non-migratory cells on the upper side of the insert were removed with a cotton swab. For quantification, three randomly selected fields on the lower side of the insert were photographed at 4× and 20× magnification using computer-assisted microscopy, and analyzed with CellProfiler2.0 cell image analysis software). The migration in response to the test condition was calculated relative to the DMSO vehicle control.
(§2) This assay provided reproducibly robust data, allowing dose-response studies to be carried out to determine the half maximal inhibitory concentration (IC50). […] Because we noticed a mild toxicity and effects on cell proliferation in the millimolar range, experiments with CME and ME at 1 mM or more were not included for the IC50 calculation.
(§3) Lung Cancer cell lines chemotaxis was performed in cell culture inserts after serum starvation and an overnight preincubation with an incremental logarithmic scale of drug concentration (ME and CME from 10^−3 to 10^−10M). Cancer cell migration in response to a serum gradient was measured after a 12 hour-long incubation in presence of different concentrations of ME or CME in both upper and lower chamber (three wells at each dose). Cells were then fixed and stained with Crystal violet, and photographed. […] Data are expressed as the mean+/−SEM of three independent experiments. Each experiment was performed in triplicate.

[2] = tested on: MDA231-LM2 lung metastatic breast cancer cells; test: trans-well cell migration assay, 3 μm pore Boyden chamber; type: cell-based; conditions: 24 h pre-treatment, 5 h migration
Description: MDA231-LM2 lung metastatic breast cancer cells were pre-treated with the indicated concentrations of ME or Carboxymethyl-ME for 24 hours. Following the pre-treatment, migration was determined using a Boyden chamber with 3 μm pore size filters. Cells were allowed to migrate for 5 hours through the chamber (in the presence of ME or Carboxymethyl-ME). Cells that traversed the porous membranes were analyzed and scored under a fluorescence microscope. […] The results are expressed as transmigrated cells per optical field. Data are averages of triplicates ±S.D. (See FIG. 6)

[3] = tested on: lung cancer (H299-GL, H522-GL, H647-GL, A549-GL, H1993, H1075-GL, H1373-GL H1703 cells); test: toxicity by alamarBlue, lung cancer cell lines; type: cell-based; conditions: mean of 8 cell lines
Description: Dilutions of DMSO without compound were used as a control. After 18 hrs or 2 days, the cultures were pulsed with 6 μl of alamarBlue® (Invitrogen Inc. Grand Island, N.Y.) and incubated overnight. The alamarBlue® provides a cell growth indicator based on detection of metabolic activity. The assay system incorporates an oxidation-reduction indicator that both fluoresces and changes color in response to chemical reduction of growth medium resulting from cell growth. The fluorescence intensity was measured using a Synergy H1 Microplate Reader (Biotek Inc, Winooski, VT) and a dose-response curve established for IC50 determination.

H1975 = test: transwell migration (modified Boyden chamber, serum gradient); type: cell-based; conditions: Homo sapiens, NCI-H1975, 12 hour migration, mean +/- SEM of three experiments, read-out: IC50, inhibition of transwell migration
Description: as §1, with “When used, drugs or DMSO (vehicle) were added to the medium at 0.2% in both chambers. Migration assays were carried out for 12 hours in a humidified incubator at 37° C. with 5% CO2. Cells were then fixed with 3.7% formaldehyde, permeabilized with ice cold methanol and stained with a 0.2% Crystal violet solution. Non-migratory cells on the upper side of the insert were removed with a cotton swab.” left out, “control. […]” for “control.”
Lung Cancer cell lines chemotaxis was performed in cell culture inserts after serum starvation and an overnight preincubation with an incremental logarithmic scale of drug concentration (ME and CME from 10^−3 to 10^−10M). […] Data are expressed as the mean+/−SEM of three independent experiments. […]

[4] = tested on: multiple myeloma (RPMI8226, MM1S, ARP-GL, CAG-GL, OPM2-GL, SKO-007-GL, U266-GL, MM1R cells); test: toxicity by alamarBlue, multiple myeloma cell lines; type: cell-based, human; conditions: mean of 8 cell lines
Description: The toxicity of compounds 42-45 and their IC50 was determined on a panel of human tumor cell lines of multiple myeloma (RPMI8226, MM1S, MM1R, ARP-GL, CAG-GL, OPM2-GL, SKO-007-GL, U266-GL,) and lung cancer (H299-GL, H522-GL, H647-GL, A549-GL, A549-GL, HI993, H1075-GL, HI373, H17030) origin. Tumor cells were dissociated into a single-cell suspension by Trypsin/Collagenase IV treatment and 500 cells per well were aliquoted into each well of 384 microwell plates in 50 μl of RPMI medium with 10% FCS. Compounds 42-45 were dissolved in DMSO and serially diluted in RPMI medium plus 10% FCS and added (1 mM to 1 nM) to quadruplicate wells containing tumor cells. Dilutions of DMSO without compound were used as a control. After 18 hrs or 2 days, the cultures were pulsed with 6 μl of alamarBlue® (Invitrogen Inc. Grand Island, N.Y.) and incubated overnight. The alamarBlue® provides a cell growth indicator based on detection of metabolic activity. The assay system incorporates an oxidation-reduction indicator that both fluoresces and changes color in response to chemical reduction of growth medium resulting from cell growth. The fluorescence intensity was measured using a Synergy H1 Microplate Reader (Biotek Inc, Winooski, VT) and a dose-response curve established for IC50 determination.

A549 = test: transwell migration (modified Boyden chamber, serum gradient); type: cell-based; conditions: Homo sapiens, 12 hour migration, mean +/- SEM of three experiments, read-out: IC50, inhibition of transwell migration
Description: as §1, §2, §3

H299 = test: as above; type: cell-based; conditions: Homo sapiens, 12 hour migration, mean +/- SEM of three experiments, read-out: IC50, inhibition of transwell migration
Description: as §1, §2, §3

In the case of `CO[C@H]1/C=C/CCCCCOC/C(C)=C\[C@@H](C)[C@@H]1OCC(=O)O` [CME, Carboxymethyl migraether], the IC50 [1] is reported as 0.5 to 5 µM, the “toxicity and effects on cell proliferation” value [1] is reported as “mild toxicity” and the “potency relative to ME at inhibiting migration” value [2] is reported as “approximately 20 fold”. For the same compound, the “Estimated lethal doses (LD50)” value ([3]; 18 h exposure) was 553.9 µM, the “Estimated lethal doses (LD50)” value ([3]; 48 h exposure) was 697.9 µM and the IC50 (H1975) was 510 ± 420 nM. The “Estimated lethal doses (LD50)” value ([4]; 18 h exposure) was 503.6 µM, the “Estimated lethal doses (LD50)” value ([4]; 48 h exposure) was 452.9 µM and the IC50 (A549) was 660 ± 200 nM. The IC50 (H299) was 5.02 ± 1.13 µM.

For `CO[C@H]1/C=C/CCCCCOC/C(C)=C\[C@@H](C)[C@@H]1O` [ME, migrastatin ether], the IC50 [1] was 1.5 to 8.2 µM, the “toxicity and effects on cell proliferation” value [1] was “mild toxicity” and the “Estimated lethal doses (LD50)” value ([3]; 48 h exposure) was 639.8 µM. The IC50 (H1975) was 1510 ± 690 nM, the “Estimated lethal doses (LD50)” value ([4]; 18 h exposure) was 794.8 µM and the “Estimated lethal doses (LD50)” value ([4]; 48 h exposure) was 881.7 µM. The IC50 (A549) was 1930 ± 410 nM and the IC50 (H299) was 8.2 ± 1.75 µM.
